# Measured values taken from US6891063B1, “Salts of asiatic and madecassic acid suitable for the preparation of pharmaceutical and cosmetic compositions” (Euphar Group S.r.l., priority 1999, dated 2005).
# Columns and labels:
# [1] = system: Croton oil induced oedema in the mouse ear; assay: Test of topical antiinflammatory activity: Croton oil dermatitis in the mouse ear; type: in vivo; settings: for ID50 (dose level able to reduce by 50% the oedematous response): linear interpolation from the dose-response relationship, indomethacin value confirmed from past data; for Inhibition (%) of oedema / Oedema (mg) m ± E.S.: 6 hours
# Description: 3. Test of Topical Antiinflammatory Activity
# The antiinflammatory activity of Asialene and L-Asialene was evaluated in comparison to that of the NSAID indomethacin. As experimental model, the Croton oil dermatitis induced in the mouse ear was used (Tubaro et al., Agents & Actions 17: 347-349).
# The experimental inflammation was induced on the right ear (surface: about 1 cm^2) of anaesthetised mice (145 mg/kg ketamine hydrochloride i.p.) by application of 80 μg of Croton oil (Sigma-Italy) in 15 μl acetone on the right ear of mice, the left remaining untreated. The tested substances were dissolved in the Croton oil solution. Six hours after the dermatitis induction, the animals were sacrificed and a punch (6 mm diameter) was excised from both the treated and the untreated ears and weighed. The Croton oil induced oedema was quantified by measuring the difference in weight between the treated and untreated (opposite) ear samples. The anti-oedema activity was expressed as percent inhibition of the oedematous response in animals treated with the test substances in comparison to the animals treated with the irritant alone. Male albino Swiss mice CD-1 (Harlan-Italy), weighing 20-32 g, were used. For each substance and dose level, 10 animals were used.
# The effects on the vascular response were evaluated as percent oedema inhibition. […] For each substance, the dose level able to reduce by 50% the oedematous response (ID50) was calculated by linear interpolation from the dose-response relationship.
# Asialene and L-Asialene were administered at equimolar doses.
# human endothelial cells [2] = assay: Fibronectin evaluation (immunofluorescence, intercellular strands) in human endothelial cells in culture; type: cell-based; settings: 1.5 μg/ml; after 48 hours; culture medium + EtOH 0.75 g/dl
# Description: (§1) 1. Test of Production of PG1 and of Fibronectin from Human Endothelial Cells in Culture.
# For the Fibronectin evaluation, the primary cultures were resuspended in 0.05% Trypsin/0.02% EDTA. The cells, washed twice in Hanks solution, were counted in order to assure at least 300,000 cells/ml and seeded. After 48 hours the supernatant was removed and the slides were prepared, which after being washed 2 times with PBS, and dried, were fixed in acetic acid/ethanol for 30 minutes; a washing with PBS was then carried out and added the polyclonal rabbit anti-human fibronectin antibody (1:40, Dako). After incubation at room temperature for 30 minutes, it was washed with PBS and the fluoresceinated anti-rabbit immunoglobulin antibody was added (1:100, Dako). The slides were left in incubation for 30 minutes and then mounted on an object holder and read with a fluorescence electronic microscope.
# In the following table, the numbers relating to fibronectin intercellular strands (1:100 scale) are reported.
# platelet = assay: Evaluation of the platelet aggregation inhibiting effect in PRP; type: cell-based, human; settings: 70 μg/ml
# Description: 2. Evaluation of the Platelet Aggregation Inhibiting Effect
# Blood taken from healthy volunteers not submitted to pharmacological therapy during one week, was gathered in polyethylene test-tubes containing 3.8% sodium citrate in 1:9 ratio, and centrifuged at 1000 g for 10 minutes in order to obtain plasma having a high platelet content (PRP) and at 3000 g for 15 minutes in order to obtain plasma having a low platelet content (PPP). Two […] PRP samples (300,000+/−10000 platelet/ml final concentration) were submitted to incubation at 37° C. for 60 seconds in presence of 100 μl FTT (700 μg/ml) and 10 μl of Asialene ([…]) respectively. Each sample was divided in three portions which were treated with 10 μl of a platelet aggregation agent, ADP ([…] final concentration), collagen (4 μg/ml final concentration) and arachidonic acid (0.2 mg/ml final concentration) respectively, and the aggregation was recorded for 4 minutes.
# human endothelial cells [3] = assay: Production of PG1 (6-Keto PGF1, RIA) from human endothelial cells in culture; type: cell-based; settings: Asialene 1.5 μg/ml, culture medium + EtOH 0.75 g/dl
# Description: as §1
# The activity of the salt prepared in the Example 1, indicated as Asialene, on cicatrization was evaluated by an in vitro test which allows to deduce the effects of the substance on the vascular permeability and on the cicatrization.
# The test consists in the evaluation of the production of PG1 from cells extracted by collagenase from vein of human omphalic funicle suspended and seeded in a suitable culture medium (E199+FCS 20%+L-Glutamine 2 mM+Penicillin 200 U/ml+Streptomycin 200 μg/ml) cultured in 75 or 25 ml flasks for 48-72 hours.
# After removing the cells with 0.05% Trypsin and 0.02% EDTA the subcultures were prepared using secondary cultures seeded on a 35 mm Petri dish, kept in an incubator with 5% CO2 and 100% humidity. For the evaluation of the cell morphology and confluence and the PG1 production, about 300,000 cells/ml of culture medium were used carrying out the count in a Burker chamber, following three schemes: • 1. Cells+culture medium+EtOH(0.75 g/dl) • 2. Cells+culture medium+EtOH(0.75 g/dl)+FTT([…]) • 3. […]
# The cultures were evaluated with an inverse light microscope, at 24 and 48 hours monitoring cell attachment and growth while on supernatant aliquots the stable metabolite of the prostacyclin (6-Keto PGF1) was assayed with RIA method. […]
# [4] = prior art statement; cited from earlier work
compound,measurement,setting,value
"COc1ccc2c(c1)c(CC(=O)O)c(C)n2C(=O)c1ccc(Cl)cc1 [Indomethacin, indomethacin, reference compound]",ID50 (dose level able to reduce by 50% the oedematous response),[1],90 μg/cm^2
same,Inhibition (%) of oedema,[1]; topical dose 90 μg/cm^2,49.3%
same,Oedema (mg) m ± E.S.,[1]; topical dose 90 μg/cm^2,3.5 ± 0.4 mg
Salt of the Asiatic Acid with Ethylenediamine [Asialene],fibronectin intercellular strands (1:100 scale),human endothelial cells [2],85
same,Aggregation from arachidonic acid (0.2 mg/ml),platelet; controls 81,23
same,Aggregation from ADP (4 mM),platelet; controls 88,32
same,Aggregation from collagen (4 μg/ml),platelet; controls 100,50
same,ID50 (dose level able to reduce by 50% the oedematous response),[1],62 μg/cm^2
same,Inhibition (%) of oedema,[1]; topical dose 30 μg/cm^2,27.5%
same,Oedema (mg) m ± E.S.,"[1]; topical dose 30 μg/cm^2, control 6.9 ± 0.2",5.0 ± 0.4 mg
same,Inhibition (%) of oedema,[1]; topical dose 100 μg/cm^2,68.1%
same,Oedema (mg) m ± E.S.,"[1]; topical dose 100 μg/cm^2, control 6.9 ± 0.2",2.2 ± 0.5 mg
same,Inhibition (%) of oedema,[1]; topical dose 300 μg/cm^2,91.3%
same,Oedema (mg) m ± E.S.,"[1]; topical dose 300 μg/cm^2, control 6.9 ± 0.2",0.6 ± 0.1 mg
same,Inhibition (%) of oedema,[1]; topical dose 1000 μg/cm^2,94.2%
same,Oedema (mg) m ± E.S.,"[1]; topical dose 1000 μg/cm^2, control 6.9 ± 0.2",0.4 ± 0.1 mg
same,potency higher than that of the reference drug (comparison between the ID50 values),[1]; versus indomethacin,50%
same,6-Keto PGF1,human endothelial cells [3]; 24 h,980 µg/mL
same,6-Keto PGF1,human endothelial cells [3]; 48 h,889 µg/mL
"C[C@@H]1CC[C@]2(C(=O)O)CC[C@]3(C)C(=CCC4[C@@]5(C)C[C@@H](O)[C@H](O)[C@@](C)(CO)C5CC[C@]43C)C2[C@H]1C (stereo partly drawn) [asiatic, 2α, 3β, 23-trihydroxyurs-12-en-28-oic acid]",solubility in water,[4],almost total insolubility in water
C[C@H]1[C@H](C)CC[C@]2(C(=O)O)CC[C@]3(C)C(=CC[C@@H]4[C@@]5(C)C[C@@H](O)[C@H](O)[C@@](C)(CO)[C@@H]5[C@H](O)C[C@]43C)[C@H]12 [madecassic acid],solubility in water,[4],almost total insolubility in water
